What was measured:
Format in all cases: cell-based
Arabidopsis callus = tested on: Arabidopsis callus
T10 [1] = assay: Growth on glyceryl glyphosate as sole phosphate source; conditions: strain T10; 0.2 mM in DF minimal medium
Method: Bacteria capable of degrading glyphosate are known (Hallas et al., 1988; Malik et al., 1989; and Moore et al., 1983; Heitkamp et al., 1990). Five of these bacteria (PG2482, LBAA, T10, T12 and CP4) and four strains of E. coli were screened for the rapid degradation of glyceryl glyphosate into inorganic phosphate. The bacteria were inoculated into 2 ml Dworkin-Foster(DF) minimal medium containing glucose, sodium gluconate and potassium citrate (each 0.1%) as carbon source and containing 0.2 mM glyceryl glyphosate as a phosphate source. The Dworkin-Foster minimal medium was made by combining 1 liter sterile H2 O with 1 ml each of A, B, C, E and F, 10 ml D, C-sources to final concentration of 0.1% each and P-source to 0.2 mM.
(§1) Bacteria which grew in this medium using glyceryl glyphosate as a sole phosphate source had the ability to cleave both the ester and the phosphonate bond to release the free phosphate. For these bacteria to be useful in the present invention, the first step in the mineralization of glyceryl glyphosate needed is the hydrolysis of the phosphonate ester. Each of the three bacteria which utilized glyceryl glyphosate as a phosphate source were then assayed for a phosphonate monoester hydrolase activity using an in vivo (3-^14 C-) glyceryl glyphosate assay. A 150 ml culture of each bacteria was grown in DF minimal medium with 0.2 mM HK2 PO4 as a phosphate source in a 500 ml flask, 30° C., with shaking. The bacteria were pelleted by centrifugation at 5,000×g for 10 min and resuspended at 10 mg fresh weight/ml. An assay mix included 50 μl cells plus 10 μl (3-^14 C-) glyceryl glyphosate (10,000 cpm/μl) and kept at 30° C. with shaking. After a three hour incubation period, the cells were pelleted in a microfuge and the supernatant injected onto an HPLC anion exchange column and glyphosate analyzed as described above. The pellet was washed twice with 1 ml 10 mM HEPES, pH 7.0, and resuspended in 25 μl buffer. The cells were lysed with 25 μl quench and the debris pelleted in a microfuge. The pellet extract was then analyzed for glyphosate product as described above. Glyphosate was found in the pellet extracts of these three bacteria indicating the presence of a phosphonate monoester hydrolase activity in these organisms.

LBAA = assay: In vivo (3-14C-) glyceryl glyphosate hydrolysis assay in whole cells; conditions: strain LBAA; three hour incubation, 30° C.
Method: as §1, with “Glyphosate was found in the pellet extracts of these three bacteria indicating the presence of a phosphonate monoester hydrolase activity in these organisms.” left out

T10 [2] = assay: as above; conditions: strain T10; three hour incubation, 30° C.
Method: as §1, with “Glyphosate was found in the pellet extracts of these three bacteria indicating the presence of a phosphonate monoester hydrolase activity in these organisms.” left out

[3] = tested on: pMON9443 transgenic Arabidopsis calli (pehA:2); assay: Callus viability on SIM medium with glyceryl glyphosate
Method: (§2) Arabidopsis was cultured and transformed essentially as described by Valvekens et al., 1988. Arabidopsis ecotype RLD seeds were sterilized in 5% chlorox, 0.05%. Tween20 for 20 min, washed with sterile H2 O and plated on MSO medium (MS salts with minimal organics (Sigma), 0.5 g MES/l pH 5.7, 1% sucrose and 0.8% agar). After 3 weeks the roots were cut away from the shoots and precultured 3 days on callus inducing medium (CIM; Gamborg's B5 salts (Sigma), 2% glucose, 0.5 g/l MES, pH 5.7, 0.8% agar, 0.5 mg/l 2,4-D and 0.05 mg/l kinetin). The roots were than grouped in small bundles of 5-7 roots and cut into 0.5 cm pieces. The root pieces were mixed with a fresh overnight culture of ABI Agrobacterium containing a previously described plant gene expression vector diluted 1:20 in liquid MSO (without agar). After two minutes, the roots were transferred to fresh CIM plates for a two day co-culture. After co-culture, the root pieces were washed 2X with liquid MSO medium and plated on shoot inducing medium (SIM; Gamborg's B5 salts, 2% glucose, 0.5 g/l MES, pH 5.7, 5 mg/l N^6 -(2-isopentenyl)adenine, 0.15 mg/l indole-3-acetic acid, 500 mg/l carbenicillin, 100 mg/l kanamycin and 0.8% agar. Callus which continued to grow and remain green were transformed to fresh SIM after two weeks. As rosettes began to form, they were cut away from the callus and transferred to MSO medium with 1 mg/l indole-3-butyric acid in sterile sundae cups to initiate root formation. After the plants had formed roots they were transferred to soil and grown to maturity to obtain seed.
(§3) Arabidopsis calli transformed with either pMON9429 or pMON9443 which were expressing the selectable marker NPT-II gene as evidenced by growth on 100 μg/ml kanamycin were then evaluated for pehA expression. The calli were transferred to SIM medium containing 100 μg/ml kanamycin and 1 mM glyceryl glyphosate. After 4 weeks, calli were scored for growth and ability to initiate shoots and leaves (+) or for necrosis (-).

[4] = tested on: pMON9429 transgenic Arabidopsis calli (pehA:1); assay: as above
Method: as §2, §3

[5] = tested on: GUS vector control Arabidopsis calli; assay: as above
Method: as §2, §3

[6] = 1 mM glyceryl glyphosate, 4 weeks, 6 lines scored
[7] = 1 mM glyceryl glyphosate, 4 weeks, 12 lines scored

O=C(O)CNCP(=O)(O)OCC(O)CO (stereo not shown) [glyceryl glyphosate, glycine, N-([hydroxy (2,3 dihydroxy propoxy)phosphonyl]methyl)]
Cytotoxicity (Arabidopsis callus): relatively non-cytotoxic
Glyceryl Glyphosate as Phosphate Source (T10 [1]): Yes
In vivo Hydrolysis of Glyceryl Glyphosate into Glyphosate (LBAA): Yes
In vivo Hydrolysis of Glyceryl Glyphosate into Glyphosate (T10 [2]): Yes
Viability Score: Growth [3, 6]: 0 number of lines
Viability Score: Necrosis [3, 6]: 6 number of lines
Callus phenotype on protoxin (in words) ([3]; medium containing glyceryl glyphosate, pMON9443 calli): lethality
Viability Score: Growth [4, 6]: 1 number of lines
Viability Score: Necrosis [4, 6]: 5 number of lines
Callus phenotype on protoxin (in words) ([4]; medium containing glyceryl glyphosate, pMON9429 calli): lethality
Viability Score: Growth [5, 7]: 12 number of lines
Viability Score: Necrosis [5, 7]: 0 number of lines
Callus growth on protoxin (in words) ([5]; 1 mM protoxin, control calli): able to grow

Reference: patent publication US5254801A, “Heterologous dominant conditional lethal gene which is a phosphonate monoester hydrolase and use thereof in plants” (Monsanto Company, priority 1990, dated 1993)
